Test results from patent US20230027066A1 (Urovant Sciences GmbH, priority 2019, published 2023).

Columns and labels:
[1] = system: men and women with overactive bladder; test: Phase 3 study (75 mg), patient-reported outcomes (OAB-q LF, PGI); format: in vivo, human; conditions: Week 12
Text: Patients completed paper questionnaires at the site at the start of each required study visit to assess patient-perceived symptom relief, symptom bother, and health-related quality of life at the study visits. […] These included the following questionnaires:
1. Global Impression Items include Patient Global Impression of Severity (PGI-Severity), Patient Global Impression of Control (PGI-Control), Patient Global Impression of Frequency (PGI-Frequency), Patient Global Impression of Leakage (PGI-Leakage), and Patient Global Impression of Change (PGI-Change).
2. Overactive Bladder Questionnaire (OAB-q long form [OAB-q LF], 1-week recall) is a 33-item patient-administered, disease-specific questionnaire that includes a Health-Related QoL (HRQL) scale (25 items) and a Symptom Bother Scale (8 items). The HRQL is a multidomain concept that represents the patient's general perception of the effect of illness and treatment on physical, psychological, and social aspects of life. […] In the present study, the HRQL scale is divided into 4 subscales: Coping, Concern/Worry, Sleep, and Social Interaction. The Coping subscale (also referred to as the coping domain score) was a secondary endpoint, with items scored from 1 (none of the time) to 6 (all the time), with higher scores indicating better QoL. The HRQL total score is calculated by summating the individual HRQL subscale scores. The Symptom Bother Scale items are scored from 1 (not at all) to 6 (a very great deal), with higher Symptom Bother scores indicating greater symptom severity. The instrument was developed and validated in both continent and incontinent OAB patients, including both men and women.
With the exception of the symptom bother score, a responder was defined as having a change from baseline ≥10. For symptom bother score, a responder was defined as having a change from baseline […]. A higher proportion of patients represented a favorable response.

[2] = 40-week extension study (52 weeks), adverse events
Text: Approximately 500 men and women with overactive bladder who completed 12 weeks in the parent study were permitted to enroll, at approximately 110 study sites in the U.S.
Secondary endpoints were evaluation of CFB at Week 52 in average number of micturitions, Urge Urinary Incontinence (UUI) episodes, urgency episodes, and total urinary incontinence episodes. All CFB calculations used the parent study Baseline value.

[3] = responder = change from baseline ≥10

Q: Which results are given for `Cc1ccc(O)c([C@H](CCN(C(C)C)C(C)C)c2ccccc2)c1` [Tolterodine ER, tolterodine, reference compound]?
A: OAB-q Sleep responders, % [1, 3]: (51.3) %; OAB-q Social Interaction responders, % [1, 3]: (37.4) %; OAB-q Total HRQL responders, % [1, 3]: (51.8) %; OAB-q Concern responders, Odds Ratio ([1]; vs placebo): 1.6; OAB-q Coping responders, Odds Ratio ([1]; vs placebo): 1.5; OAB-q Sleep responders, Odds Ratio ([1]; vs placebo): 1.1; OAB-q Social Interaction responders, Odds Ratio ([1]; vs placebo): 1.2; OAB-q Symptom Bother responders, Odds Ratio ([1]; vs placebo): 1.6; OAB-q Total HRQL responders, Odds Ratio ([1]; vs placebo, logistic regression): 1.3; Discontinued the study: Death ([2]; 40-Weeks arm): 0 n (%); Discontinued the study: Death ([2]; 52-Weeks arm): 0 n (%); SAEs resulting in death (not considered related by Investigator or Sponsor) ([2]; Overall groups): 0 n (%); Discontinued the study: Death ([2]; Overall groups, Randomized Set Extension): 0 n (%); Discontinued the study: Adverse Event ([2]; both, human, in vivo): 8 (3.4) n (%); Patients with at least one treatment-emergent adverse event ([2]; both, human, in vivo): 126 (54.3) n (%); Patients with at least one treatment-emergent serious AE ([2]; both, human, in vivo): 10 (4.3) n (%); SAEs considered treatment-related by the investigator ([2]; both, human, in vivo): 2 (0.9) n (%); SAEs: Hospitalization ([2]; both, human, in vivo): 9 (3.9) n (%); SAEs: Other serious criteria ([2]; both, human, in vivo): 2 (0.9) n (%); Discontinued the study: Adverse Event ([2]; both, human, in vivo, 40 weeks): 4 (4.4) n (%); AE leading to discontinuation of study drug: Acute prerenal failure ([2]; both, human, in vivo, 52 weeks): 1 (0.4) n (%); AE leading to discontinuation of study drug: Amnesia ([2]; both, human, in vivo, 52 weeks): 0 n (%); AE leading to discontinuation of study drug: Any ([2]; both, human, in vivo, 52 weeks): 8 (3.4) n (%); AE leading to discontinuation of study drug: Aortic stenosis ([2]; both, human, in vivo, 52 weeks): 1 (0.4) n (%); AE leading to discontinuation of study drug: Atrial fibrillation ([2]; both, human, in vivo, 52 weeks): 1 (0.4) n (%); AE leading to discontinuation of study drug: Blood creatinine increased ([2]; both, human, in vivo, 52 weeks): 0 n (%); AE leading to discontinuation of study drug: Blood urea increased ([2]; both, human, in vivo, 52 weeks): 0 n (%); AE leading to discontinuation of study drug: Cardiac failure ([2]; both, human, in vivo, 52 weeks): 1 (0.4) n (%); AE leading to discontinuation of study drug: Cardiomyopathy ([2]; both, human, in vivo, 52 weeks): 1 (0.4) n (%); AE leading to discontinuation of study drug: Chronic kidney disease ([2]; both, human, in vivo, 52 weeks): 1 (0.4) n (%); AE leading to discontinuation of study drug: Constipation ([2]; both, human, in vivo, 52 weeks): 0 n (%); AE leading to discontinuation of study drug: Diarrhea ([2]; both, human, in vivo, 52 weeks): 0 n (%); AE leading to discontinuation of study drug: Dizziness ([2]; both, human, in vivo, 52 weeks): 1 (0.4) n (%); AE leading to discontinuation of study drug: Dry eye ([2]; both, human, in vivo, 52 weeks): 1 (0.4) n (%); AE leading to discontinuation of study drug: Dyspnoea ([2]; both, human, in vivo, 52 weeks): 1 (0.4) n (%); AE leading to discontinuation of study drug: Haematuria ([2]; both, human, in vivo, 52 weeks): 1 (0.4) n (%); AE leading to discontinuation of study drug: Headache ([2]; both, human, in vivo, 52 weeks): 1 (0.4) n (%); AE leading to discontinuation of study drug: Intervertebral disc degeneration ([2]; both, human, in vivo, 52 weeks): 1 (0.4) n (%); AE leading to discontinuation of study drug: Mitral valve incompetence ([2]; both, human, in vivo, 52 weeks): 1 (0.4) n (%); AE leading to discontinuation of study drug: Osteoarthritis ([2]; both, human, in vivo, 52 weeks): 1 (0.4) n (%); AE leading to discontinuation of study drug: Pulmonary embolism ([2]; both, human, in vivo, 52 weeks): 1 (0.4) n (%); AE leading to discontinuation of study drug: Sinus tachycardia ([2]; both, human, in vivo, 52 weeks): 1 (0.4) n (%); AE leading to discontinuation of study drug: Tricuspid valve incompetence ([2]; both, human, in vivo, 52 weeks): 1 (0.4) n (%); AE: Anaemia ([2]; both, human, in vivo, 52 weeks): 2 (0.9) n (%); AE: Atrial fibrillation ([2]; both, human, in vivo, 52 weeks): 1 (0.4) n (%); AE: Back pain ([2]; both, human, in vivo, 52 weeks): 3 (1.3) n (%); AE: Blood pressure increased ([2]; both, human, in vivo, 52 weeks): 4 (1.7) n (%); AE: Bronchitis ([2]; both, human, in vivo, 52 weeks): 3 (1.3) n (%); AE: Constipation ([2]; both, human, in vivo, 52 weeks): 6 (2.6) n (%); AE: Diarrhea ([2]; both, human, in vivo, 52 weeks): 4 (1.7) n (%); AE: Dizziness ([2]; both, human, in vivo, 52 weeks): 2 (0.9) n (%); AE: Dry mouth ([2]; both, human, in vivo, 52 weeks): 12 (5.2) n (%); AE: Fatigue ([2]; both, human, in vivo, 52 weeks): 0 n (%); AE: Headache ([2]; both, human, in vivo, 52 weeks): 9 (3.9) n (%); AE: Hyperglycemia ([2]; both, human, in vivo, 52 weeks): 2 (0.9) n (%); AE: Hypertension ([2]; both, human, in vivo, 52 weeks): 20 (8.6) n (%); AE: Hypotension ([2]; both, human, in vivo, 52 weeks): 0 n (%); AE: Musculoskeletal pain ([2]; both, human, in vivo, 52 weeks): 1 (0.4) n (%); AE: Nasopharyngitis ([2]; both, human, in vivo, 52 weeks): 12 (5.2) n (%); AE: Nausea ([2]; both, human, in vivo, 52 weeks): 7 (3.0) n (%); AE: Residual urine volume increased ([2]; both, human, in vivo, 52 weeks): 3 (1.3) n (%); AE: Syncope ([2]; both, human, in vivo, 52 weeks): 1 (0.4) n (%); AE: Tachycardia (Sinus Tachycardia) ([2]; both, human, in vivo, 52 weeks): 1 (0.4) n (%); AE: Upper respiratory tract infection ([2]; both, human, in vivo, 52 weeks): 1 (0.4) n (%); AE: Urinary retention ([2]; both, human, in vivo, 52 weeks): 1 (0.4) n (%); AE: Urinary tract infection ([2]; both, human, in vivo, 52 weeks): 17 (7.3) n (%); Discontinued the study: Adverse Event ([2]; both, human, in vivo, 52 weeks): 4 (2.8) n (%)
